# How the values were obtained:
# [1] = system: TNF-α production in LPS stimulated THP-1 cells; test: Inhibition of TNF-α production in LPS stimulated THP-1 cells (ELISA); details: for TNF-α at 40 μM peptide / TNF-α at 4 μM peptide / TNF-α at 10 μM peptide: mean relative secretion; for TNF-α at 40 μM peptide: stimulated level without peptide = 100%, basal = 0%
# S. aureus (CCUG 1800) = test: Minimal microbicidal concentration (MMC99) assay, S. aureus; assay type: cell-based; details: 2 hours; for MMC99 μM in 50% SWF: 50% heat inactivated simulated wound fluid
# Experimental: Antimicrobial Activity was Measured as Bactericidal Effect on S. Aureus Using Minimal Microbicidal Concentration, MMC99, Assay)
# S. aureus (#1800; CCUG, Gothenburg, Sweden) cultured on blood-agar plates [Columbia agar (Oxoid, Basingstoke, UK) supplemented with 5% defibrinated horse blood (National Veterinary Institute (SVA), Uppsala, Sweden)] were transferred to brain heart infusion broth (3.7% BHI; Difco, BD Diagnostics, Franklin Lakes, N.J., USA) and incubated in a shaker at 250 rpm+37° C. over night. The culture was thereafter be diluted 1:10 in fresh BHI broth and incubated for additional two hours to reach log-phase growth. The bacteria were pelleted and suspended in 1% BHI medium (BHI broth diluted 100 times in ultra-pure water) to a concentration of 10^7 bacteria/ml as estimated by measuring optical density at 600 nm. Peptides were serially diluted by two-fold steps from 160 μM to 1.25 μM in 1% BHI medium. The peptides (100 μl) were thereafter incubated with bacteria (5 μl á 10^7 bact./ml) for 2 hours at +37° C. Drops (5 μl) of the suspension were placed on blood agar plates. The blood agar plates were incubated over night at +37° C. The MMC99 values, i.e. the lowest peptide concentration needed to achieve a 99% reduction of viable bacteria, were recorded (Table 3). The concentration of the bacterial suspension used in the assay was confirmed by viable counts on blood agar plates.
# S. aureus (#1800; CCUG, Gothenburg, Sweden) cultured on blood-agar plates [Columbia agar (Oxoid, Basingstoke, UK) supplemented with 5% defibrinated horse blood (National Veterinary Institute (SVA), Uppsala, Sweden)] were transferred to brain heart infusion broth (3.7% BHI; Difco, BD Diagnostics, Franklin Lakes, N.J., USA) and incubated in a shaker at 250 rpm+37° C. over night. The culture was thereafter be diluted 1:10 in fresh BHI broth and incubated for additional two hours to reach log-phase growth. The bacteria were pelleted and suspended in 1% BHI medium (BHI broth diluted 100 times in ultra-pure water) to a final concentration of 10^7 bacteria/ml as estimated by measuring optical density at 600 nm. Peptides were serially diluted by two-fold steps from 400 μM to 0.78 μM in either 1% BHI medium or in 50% heat inactivated simulated wound fluid [SWF, containing 1 part 0.1% peptone (Oxoid, Basingstoke, UK) in saline and 1 part fetal bovine serum, diluted 2 times in ultra-pure water].
# The peptides (100 μl) were thereafter incubated with bacteria (5 μl á 10^7 bact./ml) for 2 hours at +37° C. Drops (5 μl) of the suspension were placed on blood agar plates. The blood agar plates were incubated over night at +37° C. The MMC99 values, i.e. the lowest peptide concentration needed to achieve a 99% reduction of viable bacteria were recorded (Table 6). The concentration of the bacterial suspension used in the assay was confirmed by viable counts on blood agar plates.
# The antimicrobial effects of the peptide 265 (SEQ ID NO: 27) was analysed by MMC99 (minimal microbicidal concentration) assay against S. aureus (CCUG 1800), MRSA (CCUG 41879), P. aeruginosa (ATCC 15442), E. coli (CCUG 31246), S. pyogenes (CCUG 4207), P. acnes (CCUG 1794T), S. epidermidis (ATCC12228), K. pneumoniae (ATCC 13883), A. baumannii (ATCC 19606), and C. albicans (ATCC 64549). The peptides were purchased from Biopeptide Company (San Diego, Calif., USA) and Bachem AG (Bubendorf, Switzerland) and results are presented in Table 8A and 8B respectively.
# Peptide was serially diluted in two different assay medium, 1% BHI medium (brain-heart infusion medium) or 50% heat inactivated simulated wound fluid (SWF), and thereafter incubated with the microorganisms for 2 hours. Drops of the suspension were placed on blood agar plates. The MMC99 values, i.e. the lowest peptide concentration needed to achieve a 99% reduction of viable microorganisms, were recorded. As presented in Table 8, the peptide has the ability to kill microorganisms frequently appearing in infections.
# [2] = screen 1, 99% reduction of viable bacteria
Sequence,"TNF-α at 40 μM peptide ([1]; screen 2, 40 μM peptide) [%]",TNF-α at 4 μM peptide ([1]; screen 2) [%],TNF-α at 10 μM peptide ([1]; screen 2) [%],MMC99 μM in 1% BHI medium (S. aureus (CCUG 1800); screen 2) [µM],MMC99 μM in 50% SWF (S. aureus (CCUG 1800); screen 2) [µM],"TNF-α at 40 μM peptide ([1]; screen 1, 40 μM peptide, 6 h) [%]",MMC99 μM in 1% BHI medium (S. aureus (CCUG 1800); [2]) [µM],"TNF-α activities at 40 μM ([1]; 40 μM peptide, result in words)","TNF-α activity at higher concentrations ([1]; concentrations higher than 40 μM, result in words)"
KQWKRWMRKVFVSLRRVG [Peptide 260],5.9,99.3,74.0,6.25,25,–,–,–,–
FRWKRRMRKVRGSRRRQG [Peptide 263],61.4,93.6,100.1,6.25,100,–,–,–,–
EATKCFQWQRNMRKVRGPPVSSIKR [Peptide 156],–,–,–,–,–,124,20,–,–
RQWKRRMRKVFHSYRRMG [Peptide 259],33.0,108.4,108.5,6.25,25,–,–,–,–
FQWQRNMRKVRGSRRRRG [Peptide 282],114.8,–,–,12.5,200,–,–,–,–
CFQWKRAMRKVRGSRRRRG [Peptide 155],–,–,–,–,–,5,10,–,–
FWWKRAMRKVRLSRRRRG [Peptide 270],23.1,96.2,71.5,6.25,12.5,–,–,–,–
FQWKRRMRKVRGSKKKKG [Peptide 257],62.8,114.5,109.1,6.25,200,–,–,–,–
FQWKRRMRKVRGSLRRWG [Peptide 258],39.8,110.4,115.4,6.25,12.5,–,–,–,–
RQWKRVMRKVFGSRWWRG [Peptide 261],24.5,86.0,56.2,12.5,12.5,–,–,–,–
KQWKRMMRKVFSVRRWFL [Peptide 262],12.1,79.6,45.3,6.25,6.25,–,–,–,–
FQWKRRMRKVRGSRRRRG [Peptide 127],–,–,–,–,–,9,5,–,–
FQWKRRKRMRRGSVRRRG [Peptide 266],101.1,–,–,–,–,–,–,–,–
GRRRRSGRVKRMRRKQWF [Peptide 268],74.4,114.5,129.7,6.25,200,–,–,–,–
FQWQRNMRKVRGSRRRRG [Peptide 152],–,–,–,–,–,110,10,–,–
CFQWQRNMRKVRGPPVSCIKR [Peptide 157],–,–,–,–,–,153,20,–,–
FQWQRNMRKVRGSRRRRG [Peptide 256],100.5,–,–,12.5,200,–,–,–,–

Sequence,"TNF-α at 40 μM peptide ([1]; screen 2, 40 μM peptide) [%]",TNF-α at 4 μM peptide ([1]; screen 2) [%],TNF-α at 10 μM peptide ([1]; screen 2) [%],MMC99 μM in 1% BHI medium (S. aureus (CCUG 1800); screen 2) [µM],MMC99 μM in 50% SWF (S. aureus (CCUG 1800); screen 2) [µM],"TNF-α at 40 μM peptide ([1]; screen 1, 40 μM peptide, 6 h) [%]",MMC99 μM in 1% BHI medium (S. aureus (CCUG 1800); [2]) [µM],"TNF-α activities at 40 μM ([1]; 40 μM peptide, result in words)","TNF-α activity at higher concentrations ([1]; concentrations higher than 40 μM, result in words)"
FQWQRNMRKVRGSRRRRG [Peptide 224],113.4,–,–,12.5,400,–,–,–,–
CFLWRRNMRKVRGSRRRRG [Peptide 276],38.8,111.0,135.3,6.25,12.5,–,–,–,–
FQWQRKMRKVRGSRRRRG [Peptide 126],–,–,–,–,–,107,10,–,–
FQWKRRMRKVRSGRRRGR [Peptide 264],87.2,–,–,–,–,–,–,–,–
FQWQRNMRKVRGSRRRRG [Peptide 116],–,–,–,–,–,83,10,–,–
GRRRRSFQWKRRMRKVR [Peptide 269],66.2,115.7,113.8,6.25,200,–,–,–,–
CFQWKRAMRKVRGPPVSCIKRDS [Peptide 159],–,–,–,–,–,60,20,–,–
FQWQRNMRKVRGPSRRRRG [Peptide 153],–,–,–,–,–,159,10,–,–
VYYKRTARKARGSRRRRG [Peptide 272],102.8,–,–,–,–,–,–,–,–
FWWKRAMRKVRNSRRRRG [Peptide 271],24.5,101.7,74.4,6.25,6.25,–,–,–,–
WFQWKRAMRKVRGSRRRRG [Peptide 130],–,–,–,–,–,6,5,–,–
FWWKKAMKKVKGTRRRRG [Peptide 273],52.7,86.2,78.6,6.25,12.5,–,–,–,–
"FQWQRNMRKVRGSRRRRG [template peptide, reference compound]",–,–,–,–,–,–,–,almost inactive,active
FQWQRNMRKVRGSRRRRG [Peptide 150],–,–,–,–,–,134,10,–,–
FWWKRAMRKVRGSRRRRG [Peptide 132],–,–,–,–,–,18,5,–,–
FQWQRNMRKVRGPPSRRRRG [Peptide 154],–,–,–,–,–,162,10,–,–

# From patent US20130310306A1, “HUMAN LACTOFERRIN DERIVED PEPTIDES AND THEIR USE” (PharmaSurgics In Sweden AB, priority 2011, published 2013)
